According to the METLIN SMRT retention time set (Domingo-Almenara et al. 2019):

Test: gradient 5% acetonitrile 3 min, to 50% in 2 min, to 85% in 15 min, held 3 min, 100 µL/min
Conditions: column: Zorbax Extend-C18 2.1 x 50 mm; eluents: water / acetonitrile, 0.1% formic acid
Outline: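 Mixtures of ~100 pure standards were chromatographed on a Zorbax Extend-C18 column (2.1 × 50 mm, 1.8 μm) at 100 μL/min using water and acetonitrile, each with 0.1% formic acid. Detection used a quadrupole time-of-flight mass spectrometer in positive and negative ionization mode, and data collection spanned 3 months. Retention time was obtained from adduct peaks picked computationally and each checked manually.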

Structure (SMILES)	RP-LC retention time [s]
Cc1noc(CN2CCN(C3CCN(Cc4cc(C(F)(F)F)ccc4Cl)C3)C2=O)n1 (centres undefined)	660
Cc1cccc(N2CCN(Cc3nc4nc(C)cc(N(C)C)n4n3)CC2)c1	634
COc1ccc(CCNc2ncnc3c2cnn3-c2ccccc2)cc1OC	783
COc1ccc(S(=O)(=O)N2CCCC(C(=O)Nc3ccc4c(c3)OCO4)C2)cc1C (centres undefined)	957
COc1cc(Cl)c(NC(=O)C2CC(=O)N(c3cccc(NC(C)=O)c3)C2)c(OC)c1 (centres undefined)	711
O=C(CCc1cc2ccccc2[nH]c1=O)NCCN1CCc2ccccc2C1	607
CC(C)(C)c1ccc(S(=O)(=O)N2CCCCC2C(=O)N2CCN(c3ccccc3F)CC2)cc1 (centres undefined)	1280
COc1ccc(-c2csc(NC(=O)Cn3c(=O)sc4ccccc43)n2)cc1	951
COCCCNC(=O)Cc1csc(SCc2ccc(Br)cc2)n1	830
CN(C)CCNC(=O)C1CCCN(c2ncnc3c2nc2n3CCCCC2)C1 (centres undefined)	573
O=[N+]([O-])c1cccc(C2SCCN2S(=O)(=O)c2ccc(Br)cc2)c1 (centres undefined)	1020
CN(Cc1nc2cc(C(=O)N3CCCC3)ccc2n1C)C(=O)Nc1ccc(Br)cc1F	659
COc1ccc(-c2nnc(CC(=O)N3CCCC3)o2)cc1	677
O=C(NCCc1csc(-c2ccc(F)cc2)n1)c1ccc2nsnc2c1	876
COc1cc(OC)cc(C(=O)NC2CCN(c3cc(-c4ccc(F)cc4)[nH]n3)C2)c1 (centres undefined)	745
CCN(CC)c1ncc2c(n1)CCC(C(=O)NCc1cccc(OC)c1)C2 (centres undefined)	695
COc1cc(C[C@H](C)N)c(OC)cc1I	705
Cn1cc2c(N3CCCC3)nc(C(=O)NCCN3CCc4ccccc4C3)nc2n1	523
O=C(Nc1ncnc2sccc12)c1ccc([N+](=O)[O-])o1	664
Cc1ccc(Nc2nc(C(=O)NC(C)Cc3ccco3)nc3ccccc23)cc1 (centres undefined)	873
Cc1nc(-c2csc(S(=O)(=O)N3CCC(C(=O)N4CCOCC4)CC3)c2)no1	719

Structure (SMILES)	RP-LC retention time [s]
CCOc1ccc(N2C=C(C#N)S(=O)(=O)c3ccccc32)cc1	943
O=C(NC1CCN(c2cc(-c3ccc(F)cc3)[nH]n2)C1)c1ccc(F)c(F)c1 (centres undefined)	807
CCOCCCNCc1ccc(-c2cccc(Cl)c2)o1	687
Cc1ccnc(N2CCCC(C(=O)NCC3CCN(Cc4ccccc4F)CC3)C2)n1 (centres undefined)	608
Cc1ccc(-c2[nH]ncc2CN2C[C@@H]3CCN(S(C)(=O)=O)C[C@]3(CF)C2)cc1C	617
COc1ccc(CCS(=O)(=O)Nc2ccc3c(c2)N(C(=O)C2CCCO2)CC3)cc1 (centres undefined)	762
Cc1cccc2c3c(ccc12)C1=C(C(=O)C3=O)[C@@H](C)CO1	1200
CCN1CCn2cc(C(=O)NCc3cc(C)ccc3C)nc2C1	592
CCOc1ccc(-n2ccnc(NC(=O)Nc3ccc(C)c(C)c3)c2=O)cc1	1090
COc1cc(OC)c(NC(=O)c2cc3c(n(-c4ccc(F)cc4)c2=O)CCCC3=O)cc1Cl	970
Cc1ccc(C)c(NC(=O)C2(C)Oc3cccnc3N(C)C2=O)c1 (centres undefined)	836
Cc1ccc(NC(=O)CN2C(=O)CCc3cc(S(=O)(=O)N4CCCCC4C)ccc32)cc1F (centres undefined)	1010
COCCNC(=O)c1ccc(-n2nc(Sc3ccc(Cl)cc3)ccc2=O)cc1	828
O=C1C(c2cccnc2)N(c2ccc3c(c2)OCCO3)C(=O)CN1c1ccccc1 (centres undefined)	644
CN(C)C(CNC(=O)Cc1cccs1)c1ccccc1Cl (centres undefined)	550
Cc1ccc(S(=O)(=O)N2CCc3nc(-c4ccccc4)ncc3C2)c(C)c1	1170
CC(C)CNC(=O)N1CCN(Cc2nc3cccnc3n2-c2cccc(F)c2)CC1	634
CC(C)c1nnc2n1CCN(C(=O)CC1CCCCC1)C2	699
COc1ccc(-n2ccc(=O)c(-c3nc(-c4cccc(Br)c4)no3)n2)cc1	985
COCCNC(=O)C1CCN(c2nc3ccc(-c4cccs4)nc3s2)CC1	774
Cc1cc(C)c2c(-n3cccc3)nn(CC(=O)NCC(C)c3ccccc3)c2n1 (centres undefined)	1040

Structure (SMILES)	RP-LC retention time [s]
NC(=O)Cc1ccc(NS(=O)(=O)/C=C/c2ccccc2)cc1	650
CC1(C)CC(=O)C2=C(C1)Nc1ccccc1N(CC(=O)NC1CCCC1)C2c1ccc(F)cc1 (centres undefined)	863
Cc1ccc2nc(C(=O)N3CCN(c4cccc(C)c4C)CC3)cn2c1	804
c1ccc(-c2nc3ccccn3c2Nc2ccc3c(c2)OCCO3)cc1	665
COc1c(C(=O)NCCN2CCCCC2C)sc2ccc(Cl)cc12 (centres undefined)	716
CCOc1ccccc1-c1noc(-c2nnn3c2COC(c2ccc(C)cc2C)C3)n1 (centres undefined)	1290
CSc1ccc(CNC(=O)Cn2c(=O)cc(-c3nc(C)no3)c3ccccc32)cc1	859
Cc1cc(C)c(S(=O)(=O)N(CC(=O)N2CCNCC2)CC2CCCO2)cc1C (centres undefined)	704
CC(C)(Oc1ccc(Cl)cc1)C(=O)NCc1nnnn1C1CCCCC1	945
Cc1nc(-c2ccncc2)nc2c1CCC(=O)N2Cc1cccs1	723
COc1ccc(N2CC(c3nc(-c4ccccc4)no3)CC2=O)cc1OC (centres undefined)	669
CCOc1ccc(Nc2nc(C(=O)Nc3ccc(S(N)(=O)=O)cc3)cs2)cc1	761
Cc1ccc(NC(=O)CSc2nc(=O)n(CCN(C)C)c3c2CCC3)cc1F	646
Cc1ccc(C)c(C(=O)Nc2ccc3c(c2)Sc2ncccc2C(=O)N3C)c1	888
COCCn1cc(CC(=O)NC2CCCCCC2)c2cccnc21	746
Cc1noc(C)c1-c1ccc(S(=O)(=O)NCCc2ccc(S(N)(=O)=O)cc2)cc1	740
CCCCOc1ccc(C(=O)N2CCCC2c2nc(-c3ccc(OC)c(OC)c3)no2)cc1 (centres undefined)	1110
CC(C)c1cc(C(=O)Nc2ccc(Cl)cc2)no1	1080
Fc1ccc(CN2CCC(Cc3nc(-c4cccnc4)n[nH]3)C2)c(F)c1 (centres undefined)	564
CC1CCCCN1CCCNC(=O)CN1C(=O)CCn2nc(-c3cn(C)c4ccccc34)cc21 (centres undefined)	564

Other lines, results leading:

RP-LC retention time [s]	Structure (SMILES)
695	CCn1cnnc1C1CCCCN1S(=O)(=O)c1ccc(C#N)cc1 (centres undefined)
1000	CCOc1ccccc1OCc1nn2c(CSc3ccccc3)nnc2s1
762	Cc1cc(Cl)ccc1S(=O)(=O)N1C[C@H](F)C[C@@H]1C(=O)N1CCOCC1
722	Cc1nnc(N2CCCC(C(=O)NCc3ccccc3F)C2)c2nn(-c3ccccc3)c(C)c12 (centres undefined)
756	CSc1ccccc1NC(=O)c1cc2nc(C)ccc2o1
1050	Clc1ccc(-c2noc(Cc3nnc(-c4ccccc4)o3)n2)cc1
613	Cn1cc(-c2cnn3c(N)c(Br)c(C4CCCNC4)nc23)cn1 (centres undefined)
701	Cc1ccc(NS(=O)(=O)c2cc(-c3[nH]ncc3C(=O)N3CCOCC3)oc2C)c(F)c1
577	CN(C)C(=O)c1cc(=O)[nH]c2ccc(F)cc12
576	O=C(c1ccc(F)cc1)N1c2nc(-c3ccccc3)nn2C2(CCCCC2)[C@@H]2CCCC[C@@H]21
801	CCN1C(=O)CCc2cc(NC(=O)COc3ccc(F)cc3)ccc21
611	c1ccc(-c2nc(-c3ccncc3)no2)c(OC2CCN(Cc3ccc4c(c3)CCO4)C2)c1 (centres undefined)
746	Cc1cccc(-c2c3c(=O)n(C)c(=O)n(C)c3c3n2CCOC3c2c(C)n(C)c(=O)n(C)c2=O)c1 (centres undefined)
726	Cc1cccc(C(=O)N2CCN(c3c(C)n(C)c(=O)n(C)c3=O)CC2)c1
804	CCSc1nnc(NC(=O)Cc2csc(NC(=O)c3ccc4c(c3)OCO4)n2)s1
754	CC1CCN(C(=O)Cn2nc3nc(Nc4ccc(F)cc4)ccn3c2=O)CC1
787	Cc1ccc(CN2C(=O)NC3(CCN(C(=O)c4cccn4C)CC3)C2=O)cc1
716	CC(C)c1nncn1C1CCN(S(=O)(=O)c2ccccc2Cl)CC1
764	CCCCNC(=O)C1c2cc(OC)c(OC)cc2C(=O)N(C)C1c1ccc(OC)cc1 (centres undefined)
714	Cc1ccn2c(NC(=O)COc3ccc(Cl)cc3)c(-c3ccccc3)nc2c1
665	CCOc1ccc(-c2nnc3ccc(SC(C(C)=O)C(=O)N(C)C)nn23)cc1 (centres undefined)
869	O=C(Nc1ccc(F)cc1F)N1CCN(Cc2nc3cc(-c4ccccc4)ccc3o2)CC1
949	COc1ccc(-c2noc(Cc3nnc(-c4ccc(OC)cc4)o3)n2)cc1
679	COCCOCC(=O)N1CC(Oc2ccc(-c3nc(C)no3)cc2)C1
684	O=C([C@@H]1C[C@H](F)CN1C(=O)Cc1ccccc1F)N1CCCCC1
604	Cc1nc(-c2ccccn2)cc2nn(CC(=O)NCC3CCCO3)c(=O)n12 (centres undefined)
871	Cc1cccc(S(=O)(=O)N2CC3CN(C(=O)CCC(C)C)CC(C2)O3)c1
